Results as given in patent publication US11185593B2, “Alkylating agent for alkylating target with driver oncogene mutation” (Chiba Prefecture, priority 2013, dated 2021).

Columns and labels:
[1] = test system: mutant codon 12 KRAS gene and wild-type KRAS gene in LS180; assay: Colony sequence of KRAS transcripts, LS180; type: cell-based, human; settings: for MUT (number of mutant gene colonies) / WT (number of wild-type gene colonies): LS180, 50 nM, 48 hours, colony sequence, Table 2; for number of mutant gene colonies relative to wild-type gene colonies: LS180, colony sequence method
Procedure: The cells (6.5×10^4) were seeded and were then cultured overnight. Thereafter, the cultured cells were treated with 50 nM KR12 or KR13, and were then cultured for 48 hours. After that, the cultured cells were harvested, and RNA was then extracted. For the extraction, RT-PCT was carried out using RNeasy mini kit (Qiagen, CA). Subsequently, using the extracted RNA as a template, cDNA for reverse transcription was prepared by employing Super Script VILO cDNA Synthesis Kit (Invitrogen, CA). Using the prepared cDNA as a template, PCR was carried out using the primers shown in SEQ ID NO: 7 and SEQ ID NO: 8. After a reaction had been carried out at 94° C. for 5 minutes, a reaction cycle of 94° C.-30 seconds, 55° C.-30 seconds, and 72° C.-30 seconds was repeated 20 times. Finally, an elongation reaction was carried out at 72° C. for 7 minutes. The PCR product was cloned using pGEM-T Easy vector (Promega, WI). Thereafter, Escherichia coli DH5α competent cells (Toyobo, Japan) were transformed with the clone, and the obtained transformant was then cultured at 37° C. overnight in an LB plate containing 50 μg/mL ampicillin, 1 mg of X-gal and 1 mg of isopropyl-β-thiogalactopyranoside. White colonies were identified by colony direct PCR. Regarding the PCR reaction cycle, after a reaction had been carried out at 94° C. for 5 minutes, a reaction cycle of 94° C.-30 seconds, 55° C.-30 seconds, and 72° C.-30 seconds was repeated 30 times. Finally, an elongation reaction was carried out at 72° C. for 7 minutes. The following primer set, namely, an M13-F1 primer and an M13-R1 primer were used for amplification. The sequence of the amplified DNA was decoded using a sequencing primer KRAS-2R, and the KRAS gene mutation site in each colony was then identified.
KR12, which was considered to specifically alkylate the KRAS mutant codon 12 gene, was administered to a heterozygous colon cancer cell line LS180 having both a mutant codon 12 KRAS gene and a wild-type KRAS gene. Forty-eight hours later, RNA was extracted, and the KRAS gene was then quantitatively amplified. The amplified gene was cloned into a plasmid, using a TA cloning kit, and the obtained plasmid was then introduced into competent cells. Thereafter, by performing blue-white selection using an LB/amp/IPTG/X-Gal plate, white colonies having inserts were picked up, and then, the presence or absence of a colon 12 mutation in each colony was examined by direct sequencing or by a colony PCR method.

[2] = test system: mutant KRAS genes and wild-type KRAS genes in PANC-1; assay: Colony analysis of KRAS transcripts, PANC-1; type: cell-based; settings: for MUT (number of mutant gene colonies) / WT (number of wild-type gene colonies): PANC-1, Table 4
K375 = assay: Cytotoxicity test, WST-8 (cell counting kit-8), 48 hours; type: cell-based; settings: K375, KRAS G12D Hetero, read-out: KR12 IC50
Procedure: (§1) Using colon cancer and pancreatic cancer cell lines, the cells were seeded in each well of a 96-well microplate, resulting in a cell density of 3000 to 5000 cells/well, and they were then cultured overnight. On the following day, the cells of each type were treated with KR12 recognizing a codon 12 mutation in concentrations of 1 nM, 10 nM, 30 nM, 100 nM, 300 nM, and 1 μM for 48 hours. Thereafter, a WST-8 reagent was added to each well, using cell counting kit-8, and the obtained mixture was then reacted for 2 hours. After that, the number of cells was counted at a wavelength of 450 nm according to a colorimetric analysis method using a microplate reader. The method of counting the number of cells comprises: 1) obtaining the mean value of the medium alone, 2) subtracting the mean value of the medium from each well, 3) obtaining the mean value of DMSO, 4) dividing the medium-subtracted value by the mean value of DMSO and then multiplying by 100, 5) obtaining the mean value of each treatment group and a standard deviation, and then preparing a graph. The calculation formula of IC50 is the following: IC50=10 (LOG (A/B)×(50−C)/(D−C)+LOG (B)), wherein A: a higher concentration of two concentrations sandwiching 50%, B: a lower concentration of two concentrations sandwiching 50%, C: inhibitory percentage at B, and D: inhibitory percentage at A.

PANC-1 = assay: as above; type: cell-based; settings: Homo sapiens, PANC-1, KRAS G12D Hetero, read-out: KR12 IC50
Procedure: as §1

[3] = test system: colon cancer and pancreatic cancer cell lines; assay: Cytotoxicity test on various cancer cells, summary by KRAS codon 12 status; type: cell-based; settings: Homo sapiens
Procedure: as §1, with “A. […]” for “A.”

[4] = test system: active-type KRAS proteins (p21-ras proteins); assay: Measurement of RAS activity (RAS activation assay kit); type: cell-based, human; settings: LS180, 50 nM, 48 hours, FIG. 12A
Procedure: Cells (the number of cells: 2×10^6 cells/100 mm plate or 1×10^6 cells/100 mm plate) were cultured in a complete nutrient medium, and on the following day, the cultured cells were treated with 50 nM KR12 or KR13, followed by culture for 48 hours. Thereafter, the resulting cells were dissolved in a magnesium lysis buffer (MLB), and a RAS activity level was then measured using a RAS activation assay kit (Millipore, MA).

HT29 (KRAS-WT) = assay: Suppression of tumor growth in nude mice, HT29 transplanted; type: in vivo; settings: nude mice with HT29 cells; 3.4 mmol KR12 via the caudal vein; FIG. 14A
Procedure: The below-mentioned 3 types of PBS solutions containing each type of cells were subcutaneously transplanted into the femurs of nude mice (i.e., HT29 into 7 mice, LS180 into 7 mice, and SW480 into 6 mice), and thereafter, at a time point in which a tumor adhered to the living body of each mouse and the tumor volume became approximately 100 mm^3, a drug was prepared with a composition of 3.4 mmol KR12 (1.36 mM KR12 dissolved in 2.5 μL of DMSO and 197.5 μL of PBS), or of a DMSO/PBS control (2.5 μL of DMSO and 197.5 μL of PBS). The prepared drug was subjected to sonication for 10 minutes, and 200 μL of the drug was administered to each mouse via the caudal vein thereof. The body weight and the tumor size were measured once three days, and the size of the tumor was measured by the method of 0.52×L×W×D(1/6×π×L×W×D).
HT29 (KRAS-WT): (transplanted in an amount of 2×10^6 cells/100 μl PBS into the subcutis of each mouse; a wild-type KRAS codon 12 cell line having no codon 12 mutations)

Row | SMILES | MUT (number of mutant gene colonies) [1] | WT (number of wild-type gene colonies) [1] | number of mutant gene colonies relative to wild-type gene colonies [1] | MUT (number of mutant gene colonies) [2] | WT (number of wild-type gene colonies) [2] | IC50 (K375) [nM] | IC50 (PANC-1) [nM] | IC50 ([3]; SW1463, DLD-1, HT-29 and Caco-2, cell lines which do not have a codon 12 mutation recognized by KR12) [nM] | IC50 ([3]; cell lines having a codon 12 mutation, which is recognized by KR12) [nM] | expression levels of the mutant KRAS genes relative to wild-type KRAS genes ([2]; PANC-1, control group mutant 3-fold higher than wild-type) | activity of the detected KRAS protein (RAS activity level) [4] | tumor growth (HT29 (KRAS-WT))
1 | CC(=O)Nc1cn(C)c(C(=O)Nc2cn(C)c(C(=O)Nc3cc(C(=O)Nc4cn(C)c(C(=O)NCCC(=O)Nc5cc(C(=O)Nc6cn(C)c(C(=O)NCCCC(=O)Nc7cc(C(=O)Nc8cn(C)c(C(=O)Nc9cc(C(=O)NCCC(=O)Nc%10cc(C(=O)Nc%11ccc%12[nH]c(C(=O)N%13CC(CCl)c%14c%13cc(O)c%13ccccc%14%13)cc%12c%11)n(C)c%10)n(C)c9)n8)n(C)c7)n6)n(C)c5)n4)n(C)c3)n2)n1 (centres unmarked) [KR13] | 22 | 15 | the number of mutant genes was rather increased | 18 | 8 |  |  |  |  |  |  | 
2 | CC(=O)Nc1cn(C)c(C(=O)Nc2cc(C(=O)NCCC(=O)Nc3cn(C)c(C(=O)Nc4cn(C)c(C(=O)Nc5cc(C(=O)Nc6cn(C)c(C(=O)NCCCC(=O)Nc7cc(C(=O)Nc8cn(C)c(C(=O)NCCC(=O)Nc9cc(C(=O)Nc%10cc(C(=O)Nc%11ccc%12[nH]c(C(=O)N%13CC(CCl)c%14c%13cc(O)c%13ccccc%14%13)cc%12c%11)n(C)c%10)n(C)c9)n8)n(C)c7)n6)n(C)c5)n4)n3)n(C)c2)n1 (centres unmarked) [KR12] | 14 | 29 | the number of mutant gene colonies was a half of the number of wild-type gene colonies | 24 | 21 | 78 | 81 | ≥ 100 | ≤ 100 | decreased to the same levels of the wild-type KRAS genes | decreased | could not be suppressed
